Test systems include ACHN renal; UO-31 renal; RPMI-8226 leukemia; HT29 colon; SK-MEL-2 melanoma; LOX IMVI melanoma; SW-620 colon; SR leukemia; DU-145 prostate; NCI/ADR-RES ovarian.
Holding throughout (assay): growth of human tumour cells (NCI), 48 h

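Exposure lasted 48 hours, with cells grown in 96-well plates and compounds tested at five concentrations. The concentration for 50% growth inhibition is given as GI50. TGI marks complete inhibition of growth.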

For the molecule `COc1cccc(-c2nccc3c(OCc4ccccc4)c(OC)c(OC)cc23)c1`, the TGI with ACHN renal, in the experiment with UO-31 renal, in the experiment with RPMI-8226 leukemia, in the experiment on HT29 colon, with SK-MEL-2 melanoma and in the experiment on LOX IMVI melanoma was more than 100 µM throughout. The TGI in the experiment with SW-620 colon and in the experiment on SR leukemia was more than 100 µM in each case.
In the case of `Cc1c2ccccc2c(C)n2c1nc1ccccc12`, the TGI was 45.5 µM in the experiment with ACHN renal; 24.1 µM with UO-31 renal; more than 100 µM with RPMI-8226 leukemia; 69 µM in the experiment with HT29 colon; more than 100 µM in the experiment on DU-145 prostate; more than 100 µM with SW-620 colon. Also, the values for the TGI with NCI/ADR-RES ovarian and with SR leukemia were 39.5 µM and more than 100 µM, respectively.
For `CC(=O)OC(C)(C)CCC(=O)[C@](C)(O)[C@H]1[C@H](O)C[C@@]2(C)[C@@H]3CC=C4C(C)=C(OC5OC(CO)C(O)C(O)C5O)C(=O)C[C@@H]4[C@]3(C)C(=O)C[C@]12C` (some centres undefined), the TGI in the experiment with ACHN renal, in the experiment with UO-31 renal, with HT29 colon, with SK-MEL-2 melanoma, in the experiment on LOX IMVI melanoma and with DU-145 prostate was more than 100 µM in each case. The TGI in the experiment with SW-620 colon, in the experiment with NCI/ADR-RES ovarian and with SR leukemia was more than 100 µM each time.
Consider `O=C(c1ccc(O)c([N+](=O)[O-])c1)c1ccc(O)c([N+](=O)[O-])c1`, for which the TGI in the experiment on ACHN renal, in the experiment on UO-31 renal, in the experiment on RPMI-8226 leukemia, in the experiment with HT29 colon, in the experiment with SK-MEL-2 melanoma and with LOX IMVI melanoma was more than 100 µM throughout. Further, the TGI with DU-145 prostate, with SW-620 colon and in the experiment on NCI/ADR-RES ovarian was more than 100 µM throughout.
On to `CN[C@@H](C)[C@@H](O)c1ccccc1`, for which the TGI in the experiment with ACHN renal, in the experiment with UO-31 renal, in the experiment on RPMI-8226 leukemia, in the experiment with HT29 colon, in the experiment with SK-MEL-2 melanoma and with LOX IMVI melanoma was more than 100 µM each time. For the same molecule, the TGI with DU-145 prostate, in the experiment with SW-620 colon and in the experiment on NCI/ADR-RES ovarian was more than 100 µM in each case.
Regarding `Clc1ccc(C2CC(c3cccc(Nc4ccncc4)c3)=NN2c2cc(Cl)cc(Cl)c2)cc1` (centres undefined), the GI50 in the experiment on ACHN renal was 1.61 µM; in the experiment with UO-31 renal, 1.34 µM; in the experiment on DU-145 prostate it was 1.85 µM; with SW-620 colon, 1.84 µM; in the experiment on SR leukemia, 1.86 µM. Also, the TGI amounted to 2.98 µM with ACHN renal; 2.77 µM in the experiment with UO-31 renal; 3.39 µM with DU-145 prostate; 3.86 µM in the experiment on SW-620 colon; 4.65 µM with SR leukemia.
For the molecule `N#CC[N+]1(Cc2ccccn2)CCCC1`, the TGI in the experiment with ACHN renal, in the experiment on UO-31 renal, in the experiment on RPMI-8226 leukemia, in the experiment with HT29 colon, with SK-MEL-2 melanoma and with LOX IMVI melanoma was more than 100 µM in each case. Further, the TGI in the experiment on DU-145 prostate, with SW-620 colon and in the experiment with NCI/ADR-RES ovarian was more than 100 µM each time.
As for `C[n+]1c2ccccc2c(/C=N\NS(=O)(=O)c2ccc(Cl)cc2)c2ccccc21`, the TGI in the experiment with ACHN renal, in the experiment with UO-31 renal, in the experiment on RPMI-8226 leukemia, in the experiment with HT29 colon, with SK-MEL-2 melanoma and in the experiment on LOX IMVI melanoma was more than 100 µM each time. The same molecule came in with a TGI with SW-620 colon of more than 100 µM.
Consider `O=[N+]([O-])c1ccc(N2N=C(c3ccc4ccccc4c3O)CC2c2ccc(Cl)cc2)c([N+](=O)[O-])c1` (centres undefined), for which the TGI in the experiment on ACHN renal was more than 100 µM; with UO-31 renal it was more than 100 µM; in the experiment on RPMI-8226 leukemia it was 63.2 µM; with HT29 colon, more than 100 µM; with SK-MEL-2 melanoma it was more than 100 µM; in the experiment on DU-145 prostate, more than 100 µM. Moreover, the TGI with SW-620 colon was more than 100 µM; in the experiment on NCI/ADR-RES ovarian, more than 100 µM; in the experiment on SR leukemia, 40.6 µM.
With `CCCN(CCC)C1CCc2c(ccc3cc[nH]c23)C1` (centres undefined), the TGI in the experiment with ACHN renal, in the experiment with UO-31 renal, in the experiment on RPMI-8226 leukemia, in the experiment with HT29 colon, in the experiment with SK-MEL-2 melanoma and in the experiment on DU-145 prostate was more than 100 µM in each case. Moreover, the TGI was more than 100 µM in the experiment on SW-620 colon, more than 100 µM in the experiment with NCI/ADR-RES ovarian and 73.3 µM in the experiment with SR leukemia.
Consider `CC(C)(C)OC(=O)N1[C@@H]2Cc3ccc(N)cc3[C@@]1(C)c1ccccc12`, for which the TGI with ACHN renal is more than 100 µM; in the experiment with UO-31 renal, more than 100 µM; with RPMI-8226 leukemia, 48.6 µM; with HT29 colon it was 44.1 µM; in the experiment on SK-MEL-2 melanoma, 43.4 µM; with LOX IMVI melanoma it was 62.1 µM. For the same molecule, the TGI was more than 100 µM with DU-145 prostate, more than 100 µM in the experiment on SW-620 colon and 51.1 µM in the experiment with NCI/ADR-RES ovarian.
In the case of `N[C@H](CCC(=O)NCP(=O)(O)O)C(=O)O`, the TGI with ACHN renal, with UO-31 renal, in the experiment with RPMI-8226 leukemia, in the experiment with HT29 colon, in the experiment on SK-MEL-2 melanoma and in the experiment on SW-620 colon was more than 100 µM in each case. The TGI with NCI/ADR-RES ovarian and with SR leukemia was more than 100 µM in each case.
For `CCN(CC)CCOc1ccc(C(O)(Cc2ccc(OC)cc2)c2ccccc2)cc1` (centres undefined), the TGI with ACHN renal was determined as 65.3 µM; in the experiment with UO-31 renal, 62 µM; with RPMI-8226 leukemia, 39.7 µM; in the experiment with HT29 colon, 14.6 µM; in the experiment on SK-MEL-2 melanoma, 35.9 µM; in the experiment with LOX IMVI melanoma, 29 µM. The TGI worked out at 34.5 µM in the experiment on SW-620 colon and 32 µM with SR leukemia.
With `O=C1C2=C(SCCS2)C(=O)c2c(Sc3ccc(Cl)cc3)c(Sc3ccc(Cl)cc3)c(Sc3ccc(Cl)cc3)c(Sc3ccc(Cl)cc3)c21`, the TGI with ACHN renal, in the experiment on UO-31 renal, in the experiment with RPMI-8226 leukemia, in the experiment with SK-MEL-2 melanoma, in the experiment on DU-145 prostate and in the experiment on SW-620 colon was more than 100 µM in each case. The TGI was more than 100 µM in the experiment with NCI/ADR-RES ovarian and 36.2 µM in the experiment on SR leukemia.
On to `CN(Cc1cnc2nc(N)nc(N)c2n1)c1ccc(C(=O)NC(CCC(=O)NC(CC(P(=O)(O)O)P(=O)(O)O)C(=O)O)C(=O)O)cc1` (centres undefined), for which the TGI in the experiment on ACHN renal, in the experiment with UO-31 renal, in the experiment with HT29 colon, in the experiment on SK-MEL-2 melanoma, in the experiment on LOX IMVI melanoma and with DU-145 prostate was more than 100 µM throughout. Also, the TGI in the experiment with SW-620 colon, with NCI/ADR-RES ovarian and in the experiment with SR leukemia was more than 100 µM each time.

For the origin of these results see PubChem BioAssay (NCI).
